Experimental data from patent publication US9629887B1, “Control of acid reflux with botanicals” (Biotics Research Corporation, priority 2014, dated 2017).
Structures can show the parent of a compound that is named as a salt.

System: patients with acid reflux / GI tract symptoms
Assay: Case histories of patients treated with HCl-Ease capsules
Assay type: in vivo, human
Conditions: previous treatment prescribed elsewhere, patient history
Excerpt: The invention is further illustrated by the following case histories, in which the inventive capsules as described above as the specific embodiment are referred to as HCl-Ease.

SMILES | outcome of other treatment as stated by patient
C[N+](C)(C)CC(=O)O [Betaine HCL] | greatly increased their symptoms
COc1ccc2[nH]c([S+]([O-])Cc3ncc(C)c(OC)c3C)nc2c1 (centres unmarked) [Prilosec] | didn't help much
